The values that follow come from PubChem BioAssay AID330 (DTP/NCI, 2004).

Structures are written as SMILES. Several values for one entry are separate records, joined by “and”; a condition that tells them apart may be missing. Equal entries are not always repeated. Inconclusive results and toxic doses are left out.

The test relates to P388 leukemia ip, CD2F1 mice, survival T/C. Briefly: NCI In Vivo Anticancer Drug Screen. Data for tumor model P388 Leukemia (intraperitoneal) in CD2F1 (CDF1) mice. To be noted: endpoint: median survival time, higher = longer survival. The gist of the method: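 Mice carrying the transplanted tumor received test compound or vehicle. Survival was recorded in each group, and the value is the treated-group measurement divided by that of the vehicle-treated control group.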

Setting [1] is: dose: 50.0 mg/kg/injection, schedule: Q01DX009 (ip), vehicle: saline with Tween-80.
Where [2] appears, read: dose: 100.0 mg/kg/injection, schedule: Q01DX009 (ip), vehicle: saline with Tween-80.
The mark [3] stands for this setting: dose: 200.0 mg/kg/injection, schedule: Q01DX009 (ip), vehicle: saline with Tween-80.
[4] abbreviates: dose: 50.0 mg/kg/injection, schedule: Q01DX009 (ip), vehicle: Klucel (hydroxypropylcellulose) (HPC).
[5] abbreviates: dose: 100.0 mg/kg/injection, schedule: Q01DX009 (ip), vehicle: Klucel (hydroxypropylcellulose) (HPC).
[6] abbreviates: dose: 50.0 mg/kg/injection, schedule: Q01DX005 (ip), vehicle: saline with Tween-80.
Where [7] appears, read: dose: 100.0 mg/kg/injection, schedule: Q01DX005 (ip), vehicle: saline with Tween-80.
The mark [8] stands for this setting: dose: 200.0 mg/kg/injection, schedule: Q01DX005 (ip), vehicle: saline with Tween-80.

For the compound `COC(=O)NC1C(C)OC(OC2C/C=C(/C)C3C=CC4C(OC5CC(OC6CC(OC7CC(O)C(O)C(C)O7)C(OC7CC(O)C(OC)C(C)O7)C(C)O6)C(O)C(C)O5)C(C)CC(C)C4C3(C)/C(O)=C3\C(=O)OC4(CC(C)C(CO)=CC4/C=C\2C)C3=O)CC1(C)[N+](=O)[O-]` (stereo not drawn), the T/C runs as follows: (dose: 7.5 mg/kg/injection, schedule: Q01DX009 (ip), vehicle: saline) 106 % of control; (dose: 15.0 mg/kg/injection, schedule: Q01DX009 (ip), vehicle: saline) 115 % of control and 122 % of control; (dose: 30.0 mg/kg/injection, schedule: Q01DX009 (ip), vehicle: saline) 121 % of control.
Take `O=C1/C(=C/c2ccccn2)CCc2ccccc21`: the T/C was 102 % of control (dose: 50.0 mg/kg/injection, schedule: Q01DX009 (ip), vehicle: saline); 101 % of control (dose: 100.0 mg/kg/injection, schedule: Q01DX009 (ip), vehicle: saline); 99 % of control (dose: 200.0 mg/kg/injection, schedule: Q01DX009 (ip), vehicle: saline).
For `CCOC(=O)C(Nc1cc([N+](=O)[O-])ccc1C(=O)OC(C)C)(OC(C)C)C(=O)OCC`, the T/C is, setting by setting: (dose: 100.0 mg/kg/injection, schedule: Q04DX002 (ip), vehicle: Klucel (hydroxypropylcellulose) (HPC)) 90 % of control; (dose: 200.0 mg/kg/injection, schedule: Q04DX002 (ip), vehicle: Klucel (hydroxypropylcellulose) (HPC)) 91 % of control; (dose: 400.0 mg/kg/injection, schedule: Q04DX002 (ip), vehicle: Klucel (hydroxypropylcellulose) (HPC)) 90 % of control.
On to `CC(C)OC(=O)C(C)(C)Oc1ccc(C(=O)c2ccc(Cl)cc2)cc1`, for which the T/C reads like this: under setting [1], 111 % of control; under setting [2], 98 % of control; under setting [3], 97 % of control.
For `O=S1(=O)C(c2ccccc2)=C(O)c2cc3ccccc3nc21`, the T/C reads like this: under setting [1], 107 % of control; under setting [2], 112 % of control; under setting [3], 107 % of control.
With `COc1ccc(-c2c3c(c(O)c4cc5c(cc24)OCO5)COC3=O)cc1OC`, the T/C was 95 % of control (dose: 12.5 mg/kg/injection, schedule: Q01DX009 (ip), vehicle: Klucel (hydroxypropylcellulose) (HPC)); 104 % of control (dose: 25.0 mg/kg/injection, schedule: Q01DX009 (ip), vehicle: Klucel (hydroxypropylcellulose) (HPC)); 99 % of control under setting [4]; 105 % of control under setting [5].
For `C/C=C1\C[C@@H]2C(OC)Nc3cc(O)c(OC)cc3C(=O)N2C1` (stereo partly drawn), the T/C runs as follows: (dose: 0.01 mg/kg/injection, schedule: Q04DX003 (ip), vehicle: other) 97 % of control; (dose: 0.03 mg/kg/injection, schedule: Q04DX003 (ip), vehicle: other) 114 % of control; (dose: 0.1 mg/kg/injection, schedule: Q04DX003 (ip), vehicle: other) 123 % of control; (dose: 0.13 mg/kg/injection, schedule: Q04DX003 (ip), vehicle: other) 160 % of control; (dose: 0.25 mg/kg/injection, schedule: Q04DX003 (ip), vehicle: other) 163 % of control; (dose: 0.3 mg/kg/injection, schedule: Q04DX003 (ip), vehicle: other) 161 % of control. Further, the T/C by setting is: (dose: 0.5 mg/kg/injection, schedule: Q04DX003 (ip), vehicle: other) 168 % of control; (dose: 1.0 mg/kg/injection, schedule: Q04DX003 (ip), vehicle: other) 93 % of control; (dose: 1.0 micrograms/kg/injection, schedule: Q01DX009 (ip), vehicle: other) 110 % of control; (dose: 3.0 micrograms/kg/injection, schedule: Q01DX009 (ip), vehicle: other) 102 % of control; (dose: 10.0 micrograms/kg/injection, schedule: Q01DX009 (ip), vehicle: other) 118 % of control; (dose: 100.0 micrograms/kg/injection, schedule: Q01DX009 (ip), vehicle: other) 168 % of control. Moreover, the T/C (dose: 300.0 micrograms/kg/injection, schedule: Q01DX009 (ip), vehicle: other) was 200 % of control.
`O=C1CN(c2cccc(Cl)c2)C(=O)CN1/N=C/c1ccccn1`: the T/C is, setting by setting: under setting [6], 100 % of control; under setting [7], 106 % of control; under setting [8], 100 % of control.
As for `CNC(=O)c1cc2ccccc2o/c1=N/NC(N)=O`, the T/C (dose: 100.0 mg/kg/injection, schedule: Q01DX001 (ip), vehicle: saline) was 103 % of control; the T/C (dose: 200.0 mg/kg/injection, schedule: Q01DX001 (ip), vehicle: saline) was 103 % of control; the T/C (dose: 400.0 mg/kg/injection, schedule: Q01DX001 (ip), vehicle: saline) was 96 % of control.
For `O=[N+]([O-])c1ccc(CCCl)cc1`, the T/C is, setting by setting: under setting [1], 99 % of control; under setting [2], 88 % of control; under setting [3], 90 % of control.
Turning to `CCOC(=O)Nc1cc(NC(c2ccccc2)c2ccccc2)c2[nH]cnc2n1`, the T/C by setting is: (dose: 25.0 mg/kg/injection, schedule: Q01DX009 (ip), vehicle: saline with Tween-80) 88 % of control; under setting [1], 88 % of control; under setting [2], 117 % of control; under setting [3], 96 % of control.
On to `Brc1cnc2ccccn12`, for which the T/C under setting [1] is 101 % of control, the T/C under setting [2] is 102 % of control and the T/C under setting [3] was 114 % of control.
Turning to `OC1CC2OC2C1O` (stereo not drawn), the T/C is, setting by setting: (dose: 60.0 mg/kg/injection, schedule: Q01DX005 (ip), vehicle: saline) 103 % of control; (dose: 120.0 mg/kg/injection, schedule: Q01DX005 (ip), vehicle: saline) 111 % of control; (dose: 240.0 mg/kg/injection, schedule: Q01DX005 (ip), vehicle: saline) 111 % of control.
Turning to `CCCCCN(CCCCC)CC(O)c1ccc(Cl)c2ccccc12` (stereo not drawn), the T/C was 103 % of control under setting [6], 106 % of control under setting [7] and 103 % of control under setting [8].
Consider `CCCCCCC1(/C=C\c2ccc(Cl)c(Cl)c2)OCCO1`, for which the T/C is, setting by setting: under setting [4], 93 % of control; under setting [5], 108 % of control; (dose: 200.0 mg/kg/injection, schedule: Q01DX009 (ip), vehicle: Klucel (hydroxypropylcellulose) (HPC)) 100 % of control.
In the case of `COc1c2occc2c(OC(C)C(=O)O)c2c(O)cc(=O)oc12` (stereo not drawn), the T/C is 95 % of control under setting [6], 101 % of control under setting [7] and 95 % of control under setting [8].
For `C1COCCOCCOCCO1.[Cl][Sn]([Cl])([Cl])[Cl]`, the T/C (dose: 100.0 mg/kg/injection, schedule: Q01DX001 (ip), vehicle: Klucel (hydroxypropylcellulose) (HPC)) was 98 % of control and the T/C (dose: 200.0 mg/kg/injection, schedule: Q01DX001 (ip), vehicle: Klucel (hydroxypropylcellulose) (HPC)) was 90 % of control.
Consider `COc1ccc2cc1Oc1ccc(cc1)C[C@@H]1c3cc(c(OC)cc3CCN1C)Oc1c(OC)c(OC)cc3c1[C@H](C2)N(C)CC3`, for which the T/C is 99 % of control (dose: 25.0 mg/kg/injection, schedule: Q04DX002 (ip), vehicle: suspension in saline); 100 % of control (dose: 50.0 mg/kg/injection, schedule: Q04DX002 (ip), vehicle: suspension in saline); 100 % of control (dose: 100.0 mg/kg/injection, schedule: Q04DX002 (ip), vehicle: suspension in saline); 93 % of control (dose: 200.0 mg/kg/injection, schedule: Q04DX002 (ip), vehicle: suspension in saline).
With `Cc1cc2c(cc1C)NC(c1ccc(C(N)=S)cc1)N2`, the T/C is 92 % of control (dose: 100.0 mg/kg/injection, schedule: Q04DX002 (ip), vehicle: saline with Tween-80) and 86 % of control (dose: 200.0 mg/kg/injection, schedule: Q04DX002 (ip), vehicle: saline with Tween-80).
Turning to `NC(N)=NS(=O)(=O)c1ccc(N=Nc2c(O)n(-c3ccccc3)n(-c3ccccc3)c2=O)cc1`, the T/C is 88 % of control under setting [4] and 94 % of control under setting [5].
For `COC(=O)C[N+](C)(C)Cc1ccccc1`, the T/C reads like this: (dose: 50.0 mg/kg/injection, schedule: Q01DX009 (ip), vehicle: DMSO) 97 % of control; (dose: 100.0 mg/kg/injection, schedule: Q01DX009 (ip), vehicle: DMSO) 99 % of control.
`Cc1ncc(C(N)=O)c(N)n1`: the T/C reads like this: under setting [1], 103 % of control; under setting [2], 104 % of control; under setting [3], 104 % of control.
In the case of `O=C(CN1CCOCC1)Nc1cccc(C(F)(F)F)c1`, the T/C under setting [2] is 110 % of control; the T/C under setting [3] is 100 % of control; the T/C (dose: 400.0 mg/kg/injection, schedule: Q01DX009 (ip), vehicle: saline with Tween-80) is 110 % of control.
